According to PMC9249674, “A small-molecule Skp1 inhibitor elicits cell death by p53-dependent mechanism” (iScience, 2022):

Key:
[1] = test system: A549 cells; test: Cell viability assay (Cell-Titer GLO); format: cell-based, human; settings: Homo sapiens; A549; Lung cancer; 48 h; read-out: Anti-proliferative EC50
Procedure: The media was according to culture conditions of each individual cell line (mentioned above). After 12 hrs, compounds were added in a total volume of 5 μL of media (two-fold diluted) to each well with final concentrations from 5 nM to 30 μM. The measurements were conducted 48 hrs after seeding of the cells. Then, 25 μL of Cell-Titer GLO reagent (Promega) was added, and luminescence was measured on an EnSpire multimode plate reader (PerkinElmer), according to the manufacturer’s instructions. The estimated in vitro half-maximal inhibitory concentration (EC50) values were calculated using GraphPad Prism® v6.0 (San Diego, CA) software. The cell viability for A549 cells was also performed for 72- and 96-hrs by using the same experimental conditions as described above.

[2] = molecular target: T1, Skp1-ΔSkp2^F−box-peptide interaction (Homo sapiens, UniProt P63208); test: FP-based in vitro competition assay; format: binding; settings: 200 μM compound, 25 μM Skp1^WT, 500 nM tracer
T1 construct: recombinantly purify intact (Skp1^WT) and truncate (ΔSkp1^1−140; lacking H8-helix) forms of Skp1; His6; made in house; host or cells: Escherichia coli BL21 (DE3)
T1 sequence (P63208 whole entry, stated change not applied, the tested form may be a part): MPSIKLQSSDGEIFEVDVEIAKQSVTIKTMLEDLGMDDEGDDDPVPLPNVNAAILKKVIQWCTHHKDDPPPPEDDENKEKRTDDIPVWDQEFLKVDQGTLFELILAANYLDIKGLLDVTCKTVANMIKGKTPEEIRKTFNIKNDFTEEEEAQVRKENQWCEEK
Procedure: FP measurements were performed using an EnVision multilabel Reader (Perkin Elmer). […] Lyophilized F-box-FAM peptide was initially dissolved in a Tris buffer (20 mM Tris-HCl pH 9.0, 150 mM NaCl, 2 mM DTT), and then a stock solution of 100 μM was prepared by subsequent dilutions in a FP buffer (20 mM Tris-HCl pH 8.0, 150 mM NaCl, 2 mM DTT, 5% (v/v) glycerol, 0.001% (v/v) Triton X-100). Specific controls groups included free F-box-FAM (tracer), bound F-box-FAM in the presence of protein (Skp1^WT or ΔSkp1^1−140), and FP buffer for every measurement, allowing accurate estimation of specific polarization.
The selected subset of compounds were initially assayed at final concentration of 200 μM. The compounds were incubated at room temperature with Skp1^WT for 1 hr, followed by the addition of the tracer. […] After incubation for another 2 hrs, FP signals was measured on an EnVision multilabel Reader. The FP response was measured in quadruplicates with controls including free F-box-FAM (tracer), bound Skp1^WT-F-box-FAM, and FP buffer. The resultant FP values were plotted as bar graphs using ORIGIN Lab software.
For gradient FP assay, protein samples were mixed with an appropriate concentrations of ligand over the range of several folds. […] The IC50 value of the compound in the gradient-concentration assay was determined with nonlinear regression and fitting using the following equation in GraphPad Prism® v6.0 (San Diego, CA). Y = Bottom + (Top – Bottom)/(1 + 10^X−LogIC50). […] In short, the relationship between the IC50 of the inhibitor and the Ki of the inhibitor depends on the KD of the fluorescent ligand and the concentration of the receptor.

SMILES	EC50 [1]	inhibition at 200 µM [2]
C/C=C(/C)C(=O)O[C@H]1[C@@H]2[C@H](C)C(=O)O[C@@H]2C[C@@H](C)[C@@H]2C=CC(=O)[C@]21C [6-OAP, Brevilin A, reference compound]	14.1 ± 2.25 µM	
COc1ccc(-c2cc(-c3cccc(N)c3)ccn2)cc1 [JH-3, 3-(2-(4-Methoxyphenyl)pyridin-4-yl)aniline]		> 50%
